Results as given in patent US4835100A (priority 1986, dated 1989).
“And” between values parts separate entries of the source, which are not always exact repeats. Equal entries are not always repeated.

What was measured:
[1] = test system: monoclonal antibody (2F5); type: binding, mouse
monoclonal antibody 4E1 = details: cited from earlier work
[2] = test system: monoclonal antibody of Groopman et al; details: cited from earlier work
[3] = test system: Rabbit polyclonal anti-aflatoxin B1 antibody; details: cited from earlier work
[4] = test system: monoclonal antibody (1C6); type: binding, mouse
[5] = test system: monoclonal antibody (2F5); type: binding, mouse; remark: listed apart in the source
[6] = test system: serum antibody of mouse 2; type: binding
[7] = test system: serum antibody of mouse 1; type: binding

## COc1cc2c(c3oc(=O)c4c(c13)CCC4=O)[C@@H]1C=CO[C@@H]1O2 [Aflatoxin B1, aflatoxin B1]
[1]
  % Cross-reactivity 1 (2F5): 100.0%
  concentration for 50% inhibition of antibody binding in the ELISA: 2.8 ng/mL
Monoclonal antibody 4E1
  % Cross-reactivity 4: 100.0%
[2]
  % Cross-reactivity 5: 100.0%
[3]
  % Cross-reactivity Rabbit: 100.0%
[4]
  % Cross-reactivity 3 (1C6): 100.00%
[5]
  % Cross-reactivity 2 (2F5): 100.0%
[6]
  Percent Inhibition of serum antibody binding to solid phase: 44.6 and 44.3 and 28.7 and 33.6 and 23.5
[7]
  Percent Inhibition of serum antibody binding to solid phase: 0

## COc1cc2c(c3oc(=O)c4c(c13)CCC4=O)[C@@H]1CCO[C@@H]1O2 [Aflatoxin B2, aflatoxin B2]
[1]
  % Cross-reactivity 1 (2F5): 4.0%
  concentration for 50% inhibition of antibody binding in the ELISA: 70.8 ng/mL
Monoclonal antibody 4E1
  % Cross-reactivity 4: 12.6%
[2]
  % Cross-reactivity 5: 100.0%
[3]
  % Cross-reactivity Rabbit: 131.6%
[4]
  % Cross-reactivity 3 (1C6): 6.7%
[5]
  % Cross-reactivity 2 (2F5): 0.2%

## COc1cc2c(c3oc(=O)c4c(c13)CCOC4=O)[C@@H]1C=CO[C@@H]1O2 [Aflatoxin G1, aflatoxin G1]
[1]
  % Cross-reactivity 1 (2F5): 175.0%
  concentration for 50% inhibition of antibody binding in the ELISA: 1.6 ng/mL
Monoclonal antibody 4E1
  % Cross-reactivity 4: 14.3%
[2]
  % Cross-reactivity 5: 5.0%
[3]
  % Cross-reactivity Rabbit: 31.2%
[4]
  % Cross-reactivity 3 (1C6): 193.0%
[5]
  % Cross-reactivity 2 (2F5): 26.6%

## COc1cc2c(c3oc(=O)c4c(c13)CCOC4=O)[C@@H]1CCO[C@@H]1O2 [Aflatoxin G2, aflatoxin G2]
[1]
  % Cross-reactivity 1 (2F5): 5.0%
  concentration for 50% inhibition of antibody binding in the ELISA: 56.2 ng/mL
Monoclonal antibody 4E1
  % Cross-reactivity 4: 1.2%
[2]
  % Cross-reactivity 5: 3.6%
[3]
  % Cross-reactivity Rabbit: 1.3%
[4]
  % Cross-reactivity 3 (1C6): 2.3%
[5]
  % Cross-reactivity 2 (2F5): < 0.01%

## COc1cc2c(c3oc(=O)c4c(c13)CCC4=O)[C@]1(O)C=CO[C@@H]1O2 [Aflatoxin M1, aflatoxin M1]
[1]
  % Cross-reactivity 1 (2F5): 4.5%
  concentration for 50% inhibition of antibody binding in the ELISA: 63.1 ng/mL
Monoclonal antibody 4E1
  % Cross-reactivity 4: 7.3%
[2]
  % Cross-reactivity 5: 100.0%
[3]
  % Cross-reactivity Rabbit: 0%
[4]
  % Cross-reactivity 3 (1C6): 3.9%
[5]
  % Cross-reactivity 2 (2F5): 3.7%
